Target: T1, canine 5-HT2B receptor (Canis lupus familiaris, UniProt Q50DZ8)
T1 construct: expressed in transfected cells; host or cells: CHO-K1
Assay: Canine 5-HT2B (c5-HT2B) in-vitro assay (FLIPR calcium response, antagonist mode)
Format: cell-based
Conditions: CHO-K1 cells stably expressing the canine 5-HT2B receptor; intracellular calcium response (FLIPR Calcium 5); inhibition of EC80 concentration of serotonin after 10 minute antagonist incubation; read-out: Compound Receptor IC50 Affinities for c5-HT2B
Experimental: Canine 5-HT2B (c5-HT2B) In-Vitro Assay
CHO-K1 cells stably expressing the canine 5-HT2B receptor were seeded at 20,000 cells per well in 20 μl culture media (DMEM with GlutaMAX™ high glucose+5% dialyzed FBS+10 mM HEPES+1×MEM Non-Essential Amino Acids of a 384-well black plate with clear bottom for at least 18 hours at 37° C. and 5% CO2. The cell plate was loaded with 20 μl/well of the FLIPR© Calcium 5 Assay kit prepared in HBSS containing calcium and magnesium supplemented with 20 mM HEPES and 5 mM Probenecid at pH 7.4 and incubated at 37° C. and 5% CO2 for 30 minutes and then an additional 30 minutes at room temperature. The intracellular calcium response was measured using the FLIPR® Tetra instrument measuring the kinetic response of the calcium 5 dye at an excitation wavelength of 470-495 nm and emission wavelength of 515-575 nm at room temperature. The cells were initially challenged with a 5× concentration of the antagonist (10 μl/well) after an initial baseline recording and the calcium response was recorded for almost 2 minutes. After the completion of the initial antagonist challenge, the cell plate was incubated at room temperature in the FLIPR Tetra® instrument for 10 minutes. Finally, a second kinetic assay was performed after the 10 minute incubation at room temperature to measure the inhibitory response of the EC80 concentration of serotonin (15 μl/well) after an initial baseline recording. The IC50 concentration was determined for each antagonist tested.
In accordance with the in-vitro assay described above, the IC50 affinities for the c5-HT2B receptors for the compounds of the invention are provided in Table 1.

T1 sequence (Q50DZ8 1-434): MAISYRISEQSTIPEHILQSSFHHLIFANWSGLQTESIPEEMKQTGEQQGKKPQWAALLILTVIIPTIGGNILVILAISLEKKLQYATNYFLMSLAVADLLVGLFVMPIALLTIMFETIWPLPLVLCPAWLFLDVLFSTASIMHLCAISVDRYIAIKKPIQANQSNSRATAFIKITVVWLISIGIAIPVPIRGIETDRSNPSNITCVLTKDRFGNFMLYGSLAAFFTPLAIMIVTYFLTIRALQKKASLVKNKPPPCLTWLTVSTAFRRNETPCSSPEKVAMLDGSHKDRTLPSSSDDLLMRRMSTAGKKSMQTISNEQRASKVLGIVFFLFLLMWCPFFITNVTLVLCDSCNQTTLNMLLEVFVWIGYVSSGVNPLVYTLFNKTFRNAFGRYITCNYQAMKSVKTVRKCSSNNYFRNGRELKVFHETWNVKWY

SMILES | IC50
O=C(N[C@@H]1C[C@H]2CC[C@@H](C1)N2Cc1ccccc1)c1ccc2cc[nH]c2n1 [Example 2, N-((1R,3s,5S)-8-benzyl-8-azabicyclo[3.2.1]octan-3-yl)-1H-pyrrolo[2,3-b]pyridine-6-carboxamide] | 0.15 nM
O=C(N[C@@H]1C[C@H]2CC[C@@H](C1)N2Cc1ccc(Cl)cc1)c1ccc2cc[nH]c2n1 [Example 3, N-((1R,3s,5S)-8-(4-chlorobenzyl)-8-azabicyclo[3.2.1]octan-3-yl)-1H-pyrrolo[2,3-b]pyridine-6-carboxamide] | 1.53 nM
O=C(N[C@@H]1C[C@H]2CC[C@@H](C1)N2Cc1ccc2[nH]ccc2c1)c1ccc2cc[nH]c2c1 [Example 6, N-((1R,3s,5S)-8-((1H-indol-5-yl)methyl)-8-azabicyclo[3.2.1]octan-3-yl)-1H-indole-6-carboxamide] | 0.31 nM
O=C(N[C@@H]1C[C@H]2CC[C@@H](C1)N2Cc1cccs1)c1ccc2cc[nH]c2c1 [Example 7, N-((1R,3s,5S)-8-(thiophen-2-ylmethyl)-8-azabicyclo[3.2.1]octan-3-yl)-1H-indole-6-carboxamide] | 1.3 nM
O=C(N[C@@H]1C[C@H]2CC[C@@H](C1)N2Cc1ccccn1)c1ccc2cc[nH]c2c1 [Example 12, N-((1R,3s,5S)-8-(pyridin-2-ylmethyl)-8-azabicyclo[3.2.1]octan-3-yl)-1H-indole-6-carboxamide] | 54.3 nM
O=C(N[C@@H]1C[C@H]2CC[C@@H](C1)N2Cc1cnccn1)c1ccc2cc[nH]c2c1 [Example 15, N-((1R,3s,5S)-8-(pyrazin-2-ylmethyl)-8-azabicyclo[3.2.1]octan-3-yl)-1H-indole-6-carboxamide] | 3700 nM
Cn1ccnc1CN1[C@@H]2CC[C@H]1C[C@H](NC(=O)c1ccc3cc[nH]c3c1)C2 [Example 16, N-((1R,3s,5S)-8-((1-methyl-1H-imidazol-2-yl)methyl)-8-azabicyclo[3.2.1]octan-3-yl)-1H-indole-6-carboxamide] | 8700 nM
O=C(N[C@@H]1C[C@H]2CC[C@@H](C1)N2c1ccccc1)c1ccc2cc[nH]c2c1 [Example 17, N-((1R,3s,5S)-8-phenyl-8-azabicyclo[3.2.1]octan-3-yl)-1H-indole-6-carboxamide] | 8280 nM
O=C(N[C@@H]1C[C@H]2CC[C@@H](C1)N2Cc1ccccc1)c1ccc2ccn(-c3ccncc3)c2c1 [Example 18, N-((1R,3s,5S)-8-benzyl-8-azabicyclo[3.2.1]octan-3-yl)-1-(pyridin-4-yl)-1H-indole-6-carboxamide] | 538 nM
O=C(N[C@@H]1C[C@H]2CC[C@@H](C1)N2Cc1ccccc1)c1ccc2ccn(-c3ccc(F)cc3)c2c1 [Example 22, N-((1R,3s,5S)-8-benzyl-8-azabicyclo[3.2.1]octan-3-yl)-1-(4-fluorophenyl)-1H-indole-6-carboxamide] | 32 nM
O=C(N[C@@H]1C[C@H]2CC[C@@H](C1)N2Cc1ccccc1)c1ccc2ccn(-c3ccccc3)c2c1 [Example 23, N-((1R,3s,5S)-8-benzyl-8-azabicyclo[3.2.1]octan-3-yl)-1-phenyl-1H-indole-6-carboxamide] | 57 nM
O=C(N[C@@H]1C[C@H]2CC[C@@H](C1)N2Cc1ccccc1)c1ccc2ccoc2c1 [Example 24, N-((1R,3s,5S)-8-benzyl-8-azabicyclo[3.2.1]octan-3-yl)benzofuran-6-carboxamide] | 0.5 nM
O=C(N[C@@H]1C[C@H]2CC[C@@H](C1)N2Cc1ccns1)c1ccc2cc[nH]c2c1 [Example 25, N-((1R,3s,5S)-8-(isothiazol-5-ylmethyl)-8-azabicyclo[3.2.1]octan-3-yl)-1H-indole-6-carboxamide] | 1.4 nM
O=C(N[C@@H]1C[C@H]2CC[C@@H](C1)N2Cc1ccsn1)c1ccc2cc[nH]c2c1 [Example 26, N-((1R,3s,5S)-8-(isothiazol-3-ylmethyl)-8-azabicyclo[3.2.1]octan-3-yl)-1H-indole-6-carboxamide] | 17.7 nM
O=C(N[C@@H]1C[C@H]2CC[C@@H](C1)N2Cc1nccs1)c1ccc2cc[nH]c2c1 [Example 27, N-((1R,3s,5S)-8-(thiazol-2-ylmethyl)-8-azabicyclo[3.2.1]octan-3-yl)-1H-indole-6-carboxamide] | 108 nM
Cc1csc(CN2[C@@H]3CC[C@H]2C[C@H](NC(=O)c2ccc4cc[nH]c4c2)C3)n1 [Example 28, N-((1R,3s,5S)-8-((4-methylthiazol-2-yl)methyl)-8-azabicyclo[3.2.1]octan-3-yl)-1H-indole-6-carboxamide] | 200 nM

Now from value to compound:

IC50 | SMILES
0.41 nM | O=C(N[C@@H]1C[C@H]2CC[C@@H](C1)N2Cc1ccccc1)c1ccc2cc[nH]c2c1 [Example 1, N-((1R,3s,5S)-8-benzyl-8-azabicyclo[3.2.1]octan-3-yl)-1H-indole-6-carboxamide]
0.12 nM | O=C(N[C@@H]1C[C@H]2CC[C@@H](C1)N2Cc1ccc(F)cc1)c1ccc2cc[nH]c2c1 [Example 4, N-((1R,3s,5S)-8-(4-fluorobenzyl)-8-azabicyclo[3.2.1]octan-3-yl)-1H-indole-6-carboxamide]
0.27 nM | O=C(N[C@@H]1C[C@H]2CC[C@@H](C1)N2Cc1ccc(Cl)cc1)c1ccc2cc[nH]c2c1 [Example 5, N-((1R,3s,5S)-8-(4-chlorobenzyl)-8-azabicyclo[3.2.1]octan-3-yl)-1H-indole-6-carboxamide]
4 nM | Cc1cc2ccc(C(=O)N[C@@H]3C[C@H]4CC[C@@H](C3)N4Cc3ccccc3)cc2[nH]1 [Example 8, N-((1R,3s,5S)-8-benzyl-8-azabicyclo[3.2.1]octan-3-yl)-2-methyl-1H-indole-6-carboxamide]
112 nM | O=C(N[C@@H]1C[C@H]2CC[C@@H](C1)N2Cc1ccccc1)c1ccc2c3c([nH]c2c1)CCCC3 [Example 9, N-((1R,3s,5S)-8-benzyl-8-azabicyclo[3.2.1]octan-3-yl)-2,3,4,9-tetrahydro-1H-carbazole-7-carboxamide]
432 nM | O=C(N[C@@H]1C[C@H]2CC[C@@H](C1)N2Cc1ccccc1)c1ccc2cn[nH]c2c1 [Example 10, N-((1R,3s,5S)-8-benzyl-8-azabicyclo[3.2.1]octan-3-yl)-1H-indazole-6-carboxamide]
92.3 nM | O=C(N[C@@H]1C[C@H]2CC[C@@H](C1)N2Cc1ccc(C(F)(F)F)cc1)c1ccc2cc[nH]c2c1 [Example 11, N-((1R,3s,5S)-8-(4-(trifluoromethyl)benzyl)-8-azabicyclo[3.2.1]octan-3-yl)-1H-indole-6-carboxamide]
663 nM | O=C(N[C@@H]1C[C@H]2CC[C@@H](C1)N2Cc1cccnc1)c1ccc2cc[nH]c2c1 [Example 13, N-((1R,3s,5S)-8-(pyridin-3-ylmethyl)-8-azabicyclo[3.2.1]octan-3-yl)-1H-indole-6-carboxamide]
2800 nM | O=C(N[C@@H]1C[C@H]2CC[C@@H](C1)N2Cc1ccncc1)c1ccc2cc[nH]c2c1 [Example 14, N-((1R,3s,5S)-8-(pyridin-4-ylmethyl)-8-azabicyclo[3.2.1]octan-3-yl)-1H-indole-6-carboxamide]
144 nM | N#Cc1c[nH]c2cc(C(=O)N[C@@H]3C[C@H]4CC[C@@H](C3)N4Cc3ccccc3)ccc12 [Example 19, N-((1R,3s,5S)-8-benzyl-8-azabicyclo[3.2.1]octan-3-yl)-3-cyano-1H-indole-6-carboxamide]
21 nM | O=C(N[C@@H]1C[C@H]2CC[C@@H](C1)N2Cc1ccccc1)c1ccc2cc(C(F)(F)F)[nH]c2c1 [Example 20, N-((1R,3s,5S)-8-benzyl-8-azabicyclo[3.2.1]octan-3-yl)-2-(trifluoromethyl)-1H-indole-6-carboxamide]
1100 nM | O=C(N[C@@H]1C[C@H]2CC[C@@H](C1)N2Cc1ccccc1)c1ccc2ccn(-c3ccc(C(F)(F)F)cc3)c2c1 [Example 21, N-((1R,3s,5S)-8-benzyl-8-azabicyclo[3.2.1]octan-3-yl)-1-(4-(trifluoromethyl)phenyl)-1H-indole-6-carboxamide]
